Laboratory results published in the supplement of paper PMC10307832.

Experiments:
Experiment in all cases: relative viability (nuclei count vs DMSO), 5 days (fraction); higher = more cells survive
BEN = tested on: BEN
Procedure, shortened: (§1)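 Relative viability was taken as the ratio of nuclei in treated wells to nuclei in vehicle wells. Lung cancer cell lines in 1536-well plates received compounds by pin tool one day after seeding, either one drug alone or a fixed anchor-drug dose plus five library-drug doses (not always all listed) in √10 steps. Nuclei were counted on 4× images after 5 days of treatment, and values are medians of duplicate plates.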

CAL-12T = tested on: CAL-12T
Procedure, shortened: as §1

EKVX = tested on: EKVX
Procedure, shortened: as §1

HCC-366 = tested on: HCC-366
Procedure, shortened: as §1

LOU-NH91 = tested on: LOU-NH91
Procedure, shortened: as §1

LU99A = tested on: LU99A
Procedure, shortened: as §1

NCI-H1355 = tested on: NCI-H1355
Procedure, shortened: as §1

NCI-H1395 = tested on: NCI-H1395
Procedure, shortened: as §1

NCI-H1437 = tested on: NCI-H1437
Procedure, shortened: as §1

NCI-H1563 = tested on: NCI-H1563
Procedure, shortened: as §1

NCI-H1650 = tested on: NCI-H1650
Procedure, shortened: as §1

NCI-H1651 = tested on: NCI-H1651
Procedure, shortened: as §1

NCI-H1734 = tested on: NCI-H1734
Procedure, shortened: as §1

NCI-H1755 = tested on: NCI-H1755
Procedure, shortened: as §1

NCI-H1975 = tested on: NCI-H1975
Procedure, shortened: as §1

NCI-H2023 = tested on: NCI-H2023
Procedure, shortened: as §1

NCI-H2085 = tested on: NCI-H2085
Procedure, shortened: as §1

NCI-H2342 = tested on: NCI-H2342
Procedure, shortened: as §1

NCI-H358 = tested on: NCI-H358
Procedure, shortened: as §1

NCI-H441 = tested on: NCI-H441
Procedure, shortened: as §1

NCI-H460 = tested on: NCI-H460
Procedure, shortened: as §1

NCI-H838 = tested on: NCI-H838
Procedure, shortened: as §1

Structure (SMILES): CC1(C)CCC(c2ccc(Cl)cc2)=C(CN2CCN(c3ccc(C(=O)NS(=O)(=O)c4ccc(N[C@H](CCN5CCOCC5)CSc5ccccc5)c(S(=O)(=O)C(F)(F)F)c4)cc3)CC2)C1 [Navitoclax] + Cc1nc(Nc2ncc(C(=O)Nc3c(C)cccc3Cl)s2)cc(N2CCN(CCO)CC2)n1 [Dasatinib] (partner 0.075 µM)
- relative viability (BEN; first compound 0.005 µM): 0.301
- relative viability (BEN; first compound 0.01581 µM): 0.312
- relative viability (BEN; first compound 0.05 µM): 0.333
- relative viability (BEN; first compound 0.1581 µM): 0.297
- relative viability (BEN; first compound 0.5 µM): 0.0643
- relative viability (CAL-12T; first compound 0.005 µM): 0.433
- relative viability (CAL-12T; first compound 0.01581 µM): 0.6
- relative viability (CAL-12T; first compound 0.05 µM): 0.325
- relative viability (CAL-12T; first compound 0.1581 µM): 0.492
- relative viability (CAL-12T; first compound 0.5 µM): 0.506
- relative viability (EKVX; first compound 0.005 µM): 0.607
- relative viability (EKVX; first compound 0.01581 µM): 0.583
- relative viability (EKVX; first compound 0.05 µM): 0.512
- relative viability (EKVX; first compound 0.1581 µM): 0.692
- relative viability (EKVX; first compound 0.5 µM): 0.598
- relative viability (HCC-366; first compound 0.005 µM): 0.587
- relative viability (HCC-366; first compound 0.01581 µM): 0.689
- relative viability (HCC-366; first compound 0.1581 µM): 0.709
- relative viability (HCC-366; first compound 0.5 µM): 0.646
- relative viability (LOU-NH91; first compound 0.005 µM): 0.522
- relative viability (LOU-NH91; first compound 0.01581 µM): 0.566
- relative viability (LOU-NH91; first compound 0.05 µM): 0.454
- relative viability (LOU-NH91; first compound 0.1581 µM): 0.5
- relative viability (LOU-NH91; first compound 0.5 µM): 0.377
- relative viability (LU99A; first compound 0.005 µM): 0.542
- relative viability (LU99A; first compound 0.01581 µM): 0.879
- relative viability (LU99A; first compound 0.05 µM): 0.418
- relative viability (LU99A; first compound 0.1581 µM): 0.618
- relative viability (LU99A; first compound 0.5 µM): 0.821
- relative viability (NCI-H1355; first compound 0.005 µM): 0.765
- relative viability (NCI-H1355; first compound 0.01581 µM): 0.796
- relative viability (NCI-H1355; first compound 0.05 µM): 0.753
- relative viability (NCI-H1355; first compound 0.1581 µM): 0.699
- relative viability (NCI-H1355; first compound 0.5 µM): 0.729
- relative viability (NCI-H1395; first compound 0.005 µM): 0.404
- relative viability (NCI-H1395; first compound 0.01581 µM): 0.42
- relative viability (NCI-H1395; first compound 0.05 µM): 0.378
- relative viability (NCI-H1395; first compound 0.1581 µM): 0.387
- relative viability (NCI-H1395; first compound 0.5 µM): 0.483
- relative viability (NCI-H1437; first compound 0.005 µM): 0.377
- relative viability (NCI-H1437; first compound 0.01581 µM): 0.513
- relative viability (NCI-H1437; first compound 0.05 µM): 0.287
- relative viability (NCI-H1437; first compound 0.1581 µM): 0.394
- relative viability (NCI-H1437; first compound 0.5 µM): 0.41
- relative viability (NCI-H1563; first compound 0.005 µM): 0.464
- relative viability (NCI-H1563; first compound 0.01581 µM): 0.458
- relative viability (NCI-H1563; first compound 0.05 µM): 0.46
- relative viability (NCI-H1563; first compound 0.1581 µM): 0.434
- relative viability (NCI-H1563; first compound 0.5 µM): 0.474
- relative viability (NCI-H1650; first compound 0.005 µM): 0.28
- relative viability (NCI-H1650; first compound 0.01581 µM): 0.38
- relative viability (NCI-H1650; first compound 0.05 µM): 0.314
- relative viability (NCI-H1650; first compound 0.1581 µM): 0.277
- relative viability (NCI-H1650; first compound 0.5 µM): 0.219
- relative viability (NCI-H1651; first compound 0.005 µM): 0.37
- relative viability (NCI-H1651; first compound 0.01581 µM): 0.41
- relative viability (NCI-H1651; first compound 0.05 µM): 0.308
- relative viability (NCI-H1651; first compound 0.1581 µM): 0.455
- relative viability (NCI-H1651; first compound 0.5 µM): 0.456
- relative viability (NCI-H1734; first compound 0.005 µM): 0.41
- relative viability (NCI-H1734; first compound 0.01581 µM): 0.544
- relative viability (NCI-H1734; first compound 0.1581 µM): 0.425
- relative viability (NCI-H1734; first compound 0.5 µM): 0.554
- relative viability (NCI-H1755; first compound 0.005 µM): 0.396
- relative viability (NCI-H1755; first compound 0.01581 µM): 0.416
- relative viability (NCI-H1755; first compound 0.05 µM): 0.262
- relative viability (NCI-H1755; first compound 0.1581 µM): 0.339
- relative viability (NCI-H1755; first compound 0.5 µM): 0.281
- relative viability (NCI-H1975; first compound 0.005 µM): 0.346
- relative viability (NCI-H1975; first compound 0.01581 µM): 0.36
- relative viability (NCI-H1975; first compound 0.05 µM): 0.415
- relative viability (NCI-H1975; first compound 0.1581 µM): 0.337
- relative viability (NCI-H1975; first compound 0.5 µM): 0.323
- relative viability (NCI-H2023; first compound 0.005 µM): 0.488
- relative viability (NCI-H2023; first compound 0.01581 µM): 0.594
- relative viability (NCI-H2023; first compound 0.05 µM): 0.621
- relative viability (NCI-H2023; first compound 0.1581 µM): 0.648
- relative viability (NCI-H2023; first compound 0.5 µM): 0.561
- relative viability (NCI-H2085; first compound 0.005 µM): 0.234
- relative viability (NCI-H2085; first compound 0.01581 µM): 0.234
- relative viability (NCI-H2085; first compound 0.05 µM): 0.199
- relative viability (NCI-H2085; first compound 0.1581 µM): 0.228
- relative viability (NCI-H2085; first compound 0.5 µM): 0.315
- relative viability (NCI-H2342; first compound 0.005 µM): 0.32
- relative viability (NCI-H2342; first compound 0.01581 µM): 0.309
- relative viability (NCI-H2342; first compound 0.05 µM): 0.27
- relative viability (NCI-H2342; first compound 0.1581 µM): 0.278
- relative viability (NCI-H2342; first compound 0.5 µM): 0.31
- relative viability (NCI-H358; first compound 0.005 µM): 0.188
- relative viability (NCI-H358; first compound 0.01581 µM): 0.219
- relative viability (NCI-H358; first compound 0.05 µM): 0.142
- relative viability (NCI-H358; first compound 0.1581 µM): 0.165
- relative viability (NCI-H358; first compound 0.5 µM): 0.199
- relative viability (NCI-H441; first compound 0.005 µM): 0.739
- relative viability (NCI-H441; first compound 0.01581 µM): 0.639
- relative viability (NCI-H441; first compound 0.05 µM): 0.549
- relative viability (NCI-H441; first compound 0.1581 µM): 0.632
- relative viability (NCI-H441; first compound 0.5 µM): 0.637
- relative viability (NCI-H460; first compound 0.005 µM): 0.522
- relative viability (NCI-H460; first compound 0.01581 µM): 0.609
- relative viability (NCI-H460; first compound 0.05 µM): 0.651
- relative viability (NCI-H460; first compound 0.1581 µM): 0.53
- relative viability (NCI-H460; first compound 0.5 µM): 0.483
- relative viability (NCI-H838; first compound 0.005 µM): 0.267
- relative viability (NCI-H838; first compound 0.01581 µM): 0.334
- relative viability (NCI-H838; first compound 0.05 µM): 0.26
- relative viability (NCI-H838; first compound 0.1581 µM): 0.238
- relative viability (NCI-H838; first compound 0.5 µM): 0.36
